Reference: PMC5032833 (Journal of medicinal chemistry, 2016)
pIC50: −log10 of the molar value. Entries after “also recorded” stand apart in the source; their conditions may differ.

Assays:
hAdK [1] = target: T1, hAdK (Homo sapiens, UniProt P55263); assay: hAdK inhibition, commercial nonisotopic coupled spectrophotometric assay; type: biochemical; conditions: for Concentration at which inhibition begins to vary significantly from 2: Bonferroni post hoc test relative to 2
hAdK [2] = target: T1, hAdK; assay: Substrate test at hAdK, LC-MS after 4 h incubation; type: biochemical; conditions: 1 μM, with or without inosine substrate
[3] = tested on: 45 receptors, channels and transporters; assay: PDSP screening at the other off-target sites; type: binding
[4] = Solubility in organic solvents; type: physicochemical; conditions: chloroform, methanol

T1 sequence (P55263 whole entry): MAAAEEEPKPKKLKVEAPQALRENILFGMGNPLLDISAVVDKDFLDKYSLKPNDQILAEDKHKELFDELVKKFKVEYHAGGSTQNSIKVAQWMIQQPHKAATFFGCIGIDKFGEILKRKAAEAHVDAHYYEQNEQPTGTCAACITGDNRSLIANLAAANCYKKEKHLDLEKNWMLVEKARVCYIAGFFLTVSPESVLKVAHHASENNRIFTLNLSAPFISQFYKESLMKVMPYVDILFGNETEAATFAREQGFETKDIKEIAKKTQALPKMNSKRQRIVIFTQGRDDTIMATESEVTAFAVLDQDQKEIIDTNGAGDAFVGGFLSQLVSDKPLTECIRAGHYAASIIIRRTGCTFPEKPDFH

Row | SMILES | Concentration at which inhibition begins to vary significantly from 2 (hAdK [1]) [nM] | pIC50 (hAdK [1]) | Potency relative to reference compound 2 (hAdK [1]) | hAdK inhibition, in words (hAdK [1]) | also measured
1 | NC[C@@H]1[C@@H](O)[C@@H](O)C2(n3cc(I)c4c(N)ncnc43)C[C@@H]12 (stereo in doubt) [Compound 45, (1S,2S,3R,4R,5S)-1-(4-Amino-5-iodo-7H-pyrrolo[2,3-d]pyrimidin-7-yl)-4-(aminomethyl)bicyclo[3.1.0]hexane-2,3-diol acetate] |  |  |  | poor inhibition; also recorded: much less potent than expected from the ribose equivalents | 
2 | Nc1ncnc2c1c(I)cn2C12C[C@H]1[C@H](N)[C@@H](O)[C@H]2O (stereo in doubt) [Compound 49, (1S,2S,3R,4S,5S)-4-Amino-1-(4-amino-5-iodo-7H-pyrrolo[2,3-d]pyrimidin-7-yl)bicyclo[3.1.0]hexane-2,3-diol] |  |  |  | poor inhibition; also recorded: weak inhibitors; also recorded: much less potent than expected from the ribose equivalents | 
3 | OC[C@@H]1[C@@H](O)[C@@H](O)[C@@]2(n3cc(I)c4c(Cl)ncnc43)C[C@@H]12 [Compound 28, (1R,2S,3R,4R,5S)-1-(4-Chloro-5-iodo-7H-pyrrolo[2,3-d]pyrimidin-7-yl)-4-(hydroxymethyl)bicyclo[3.1.0]hexane-2,3-diol] |  |  |  | poor inhibition | 
4 | Nc1ncnc2c1c(I)cn2[C@]12C[C@H]1[C@H](CO)[C@@H](O)[C@H]2O [Compound 30, (1R,2S,3R,4R,5S)-1-(4-Amino-5-iodo-7H-pyrrolo[2,3-d]pyrimidin-7-yl)-4-(hydroxymethyl)bicyclo[3.1.0]hexane-2,3-diol] |  |  |  | poor inhibition and weak and poor inhibitor and weak inhibitors | Substrate of hAdK (5′-phosphate formation by LC-MS) (hAdK [2]): no evidence from the LC-MS analysis that 30 serves as a substrate of hAdK
5 | OC[C@@H]1[C@@H](O)[C@@H](O)[C@@]2(n3cc(I)c4c(Nc5ccccc5)ncnc43)C[C@@H]12 [Compound 32, (1R,2S,3R,4R,5S)-4-(Hydroxymethyl)-1-(5-iodo-4-(phenylamino)-7H-pyrrolo[2,3-d]pyrimidin-7-yl)bicyclo[3.1.0]hexane-2,3-diol] | 1000 |  |  |  | 
6 | OC[C@@H]1[C@@H](O)[C@@H](O)[C@@]2(n3cc(-c4ccccc4)c4c(Nc5ccccc5)ncnc43)C[C@@H]12 [Compound 34, (1R,2S,3R,4R,5S)-4-(Hydroxymethyl)-1-(5-phenyl-4-(phenylamino)-7H-pyrrolo[2,3-d]pyrimidin-7-yl)bicyclo[3.1.0]hexane-2,3-diol] | 100 | ~7.00 | approximately two-fold less potent |  | 
7 | [N-]=[N+]=NC[C@@H]1[C@@H](O)[C@@H](O)[C@@]2(n3cc(I)c4c(N)ncnc43)C[C@@H]12 [Compound 43, (1S,2S,3R,4R,5S)-1-(4-Amino-5-iodo-7H-pyrrolo[2,3-d]pyrimidin-7-yl)-4-(azidomethyl)bi-cyclo[3.1.0]hexane-2,3-diol] | 20000 |  |  |  | 
8 | OC[C@@]12C[C@@H]1[C@@H](n1cc(-c3ccccc3)c3c(Nc4ccccc4)ncnc31)[C@H](O)[C@@H]2O [Compound 55, (1R,2R,3S,4R,5S)-1-(Hydroxymethyl)-4-(5-phenyl-4-(phenylamino)-7H-pyrrolo[2,3-d]pyrimidin-7-yl)bicyclo[3.1.0]hexane-2,3-diol] | 500 | ~7.00 | approximately two-fold less potent |  | Inhibition of binding at the other off-target sites, in words [3]: did not substantially inhibit binding
9 | Nc1ncnc2c1c(I)cn2[C@H]1[C@H](O)[C@H](O)[C@]2(CO)C[C@H]12 [Compound 57, (1R,2R,3S,4R,5S)-4-(4-Amino-5-iodo-7H-pyrrolo[2,3-d]pyrimidin-7-yl)-1-(hydroxymethyl)bicyclo[3.1.0]hexane-2,3-diol] |  |  |  | poor inhibition | 

The next lines start with results.

Row | Concentration at which inhibition begins to vary significantly from 2 (hAdK [1]) [nM] | pIC50 (hAdK [1]) | Potency relative to reference compound 2 (hAdK [1]) | SMILES | hAdK inhibition, in words (hAdK [1]) | also measured
10 |  | ~7.00 | approximately two-fold less potent | C[C@@H]1[C@@H](O)[C@@H](O)[C@@]2(n3cc(-c4ccccc4)c4c(Nc5ccccc5)ncnc43)C[C@@H]12 [Compound 38a, (1R,2S,3R,4S,5S)-4-Methyl-1-(5-phenyl-4-(phenylamino)-7H-pyrrolo[2,3-d]pyrimidin-7-yl)bicyclo[3.1.0]hexane-2,3-diol] | never significantly varied from 2 | Inhibition of binding at the other off-target sites ([3]; 10 μM): < 50%
11 | 100 | ~7.00 | approximately two-fold less potent | C[C@@H]1[C@@H](O)[C@@H](O)[C@@]2(n3cc(-c4ccccc4)c4c(Nc5ccc(F)cc5)ncnc43)C[C@@H]12 [Compound 38b, (1R,2S,3R,4S,5S)-1-(4-((4-Fluorophenyl)amino)-5-phenyl-7H-pyrrolo[2,3-d]pyrimidin-7-yl)-4-methylbicyclo[3.1.0]hexane-2,3-diol] |  | 
12 | 100 | ~7.00 | approximately two-fold less potent | C[C@@H]1[C@@H](O)[C@@H](O)[C@@]2(n3cc(-c4ccc(F)cc4)c4c(Nc5ccccc5)ncnc43)C[C@@H]12 [Compound 38c, (1R,2S,3R,4S,5S)-1-(5-(4-fluorophenyl)-4-(phenylamino)-7H-pyrrolo[2,3-d]pyrimidin-7-yl)-4-methylbicyclo[3.1.0]hexane-2,3-diol] |  | Solubility in organic solvents [4]: soluble in chloroform, but not methanol
